One assay concerns the target activated human C1 (Homo sapiens, UniProt P09871). Kind of assay: Test Code 026 (C1 inhibitor): protection of fluid phase human C2 from activated human C1 in the presence of C4. The assay is classed as biochemical. The conditions noted are these: serial twofold dilution assay; higher well number indicates higher activity.
The test system of assay [1] is hereditary angioneurotic edema. The note with it: literature report; cited from earlier work.
Another assay concerns complement system. The conditions noted are these: literature report; cited from earlier work.
The subject of assay [2] is total hemolytic complement activity. The note with it: in vitro and in vivo, judged by reduction in total hemolytic complement activity; cited from earlier work.

Where “and” joins values, the source holds several entries; their conditions need not be identical. Equal entries are not always repeated. Structures can show the parent of a compound that is named as a salt.

Take `O=S(=O)(O)OC[C@H]1O[C@H](O[C@H]2[C@H](O)[C@@H](OS(=O)(=O)O)[C@H](SCC(S)CO)O[C@@H]2COS(=O)(=O)O)[C@H](OS(=O)(=O)O)[C@@H](O)[C@@H]1O` (stereo partly drawn) [3-Hydroxy-2-mercaptopropyl 4-O-α-D-glucopyranosyl-1-thio-β-D-glucopyranoside-tetrakis-(H-sulfate) tetrasodium salt]: on activated human C1, the “In vitro Activity Cl 026 Wells” value is 6 Wells and 9 Wells.

With `O=S(=O)([O-])OC[C@H]1O[C@@H](SCC(O)C(O)CS)[C@H](OS(=O)(=O)[O-])[C@@H](OS(=O)(=O)[O-])[C@@H]1O[C@H]1O[C@H](COS(=O)(=O)[O-])[C@@H](OS(=O)(=O)[O-])[C@H](OS(=O)(=O)[O-])[C@H]1OS(=O)(=O)[O-].[Na+].[Na+].[Na+].[Na+].[Na+].[Na+].[Na+]` (stereo partly drawn) [2,3-Dihydroxy-4-mercaptobutyl 2,3,6-tri-O-sulfo-4-O-(2,3,4,6-tetra-O-sulfo-α-D-glucopyranosyl)-1-thio-β-D-glucopyranoside heptasodium salt], on activated human C1, the “In vitro Activity Cl 026 Wells” value turned out to be 12 Wells.

Regarding `NC[C@H]1CC[C@H](C(=O)O)CC1` [tranexamic acid], the “treatment of hereditary angioneurotic edema” value in assay [1] is “used with success”.

For `Nc1ccc2cc(S(=O)(=O)[O-])cc(O)c2c1N=Nc1ccc(NC(=O)Nc2ccc(N=Nc3c(N)ccc4cc(S(=O)(=O)[O-])cc(O)c34)c(S(=O)(=O)[O-])c2)cc1S(=O)(=O)[O-].[Na+].[Na+].[Na+].[Na+]` [chlorazol fast pink, 3,3'-ureylenebis[6-(2-amino-8-hydroxy-6-sulfo-1-naphthylazo)benzenesulfonic acid], tetrasodium salt], the anticomplementary effect entry with complement system is recorded as “anticomplementary effect”.

pentosan- polysulfoester: in assay [2], the “anticomplementary activity on human serum” value is listed as “anticomplementary activity”.

As to heparin, the anticomplementary effect result in the assay with complement system is on record as “anticomplementary effect”.

`N[C@@H](CS[C@@H]1O[C@H](COS(=O)(=O)O)[C@@H](O[C@H]2O[C@H](COS(=O)(=O)O)[C@@H](OS(=O)(=O)O)[C@H](OS(=O)(=O)O)[C@H]2OS(=O)(=O)O)[C@H](OS(=O)(=O)O)[C@H]1OS(=O)(=O)O)C(=O)O` [4-[2,3,6-Tri-O-sulfo-4-O-(2,3,4,6-tetra-O-sulfo-α-D-glucopyranosyl)-β-D-glucopyranosyl]-L-cysteine heptasodium salt]: the “In vitro Activity Cl 026 Wells” value on activated human C1 is on record as 1 Wells.

On to `CC(=O)NC(CCS[C@@H]1O[C@H](COS(=O)(=O)O)[C@@H](O[C@H]2O[C@H](COS(=O)(=O)O)[C@@H](OS(=O)(=O)O)[C@H](OS(=O)(=O)O)[C@H]2OS(=O)(=O)O)[C@H](OS(=O)(=O)O)[C@H]1OS(=O)(=O)O)C(=O)O` (stereo partly drawn) [4-[2,3,6-Tri-O-sulfo-4-O-(2,3,4,6-tetra-O-sulfo-α-D-glucopyranosyl)-β-D-glucopyranosyl]-2-acetamido-4-mercaptobutyric acid heptasodium salt], for which the “In vitro Activity Cl 026 Wells” value on activated human C1 was 6 Wells.

For `NCCCCCC(=O)O` [epsilon-aminocaproic acid], the “treatment of hereditary angioneurotic edema” value in assay [1] is recorded as “used with success”.

The values are drawn from patent US4468385A, “Poly-cation salts of 4-O-poly-hexaose-thio-alkylene sulfate derivatives and method of use” (American Cyanamid Company, priority 1983, dated 1984).
